From patent publication US20150148311A1, “NON-SYSTEMIC TGR5 AGONISTS” (Ardelyx, Inc., priority 2011, published 2015) come the findings set out here.

SMILES strings stand for the structures. Like-named read-outs stand apart in the source and are kept apart here.

The target of one series is T1, human IBAT (Homo sapiens, UniProt Q12908).
T1 construct: expressed in transfected cells; host or cells: HEK293
T1 sequence (Q12908 1-348): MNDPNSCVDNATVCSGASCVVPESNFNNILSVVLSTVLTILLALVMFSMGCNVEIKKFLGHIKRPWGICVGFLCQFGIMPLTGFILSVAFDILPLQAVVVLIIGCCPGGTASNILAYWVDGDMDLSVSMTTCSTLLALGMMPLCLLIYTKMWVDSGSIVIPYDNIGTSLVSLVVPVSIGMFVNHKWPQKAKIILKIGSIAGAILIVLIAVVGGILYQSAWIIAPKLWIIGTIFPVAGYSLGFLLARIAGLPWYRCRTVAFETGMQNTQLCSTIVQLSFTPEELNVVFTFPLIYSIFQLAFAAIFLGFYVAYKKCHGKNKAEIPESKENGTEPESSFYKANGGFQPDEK
The series can be described thus: IBAT counter screen, [3H]taurocholic acid uptake in IBAT-transfected HEK293 cells. It counts as cell-based. The settings on record: read-out: pEC50 human IBAT (converted). The method, then:
Following a 40-min incubation, the solution was removed, and the cells were washed twice with uptake buffer. Cells were lysed by addition of 20 μL 0.1% Tween 80 followed by 100 μL scintillation fluid and counted using a TopCount (Perkin Elmer).
On the technique in general: Counterscreens check selectivity or assay interference.

Series [1] can be described thus: Compound plasma concentration, LC-MS/MS, 8 h post dose. The settings on record: 30 mg/kg; for Number of Mice with Plasma Concentration < LLOQ: mice below LLOQ / mice in group; for concentration at 8 h: male, C57BL/6, mouse, mice, plasma, read-out: Mean Example Plasma Concentration. It counts as in vivo. As for the experimental part:
(§1) Eight hours later, each mouse was heavily anesthetized with isoflurane, the peritoneal cavity was opened and the gallbladder, with its entire contents, was carefully excised and weighed. Blood was collected from the left ventricle of the heart and processed to plasma in EDTA-coated tubes containing aprotinin and DPPIV inhibitor for measurement of total GLP-1 (K150FCC; Meso Scales Discovery, Gaithersburg Md.).
Plasma samples were treated with acetonitrile containing an internal standard, precipitated proteins removed by centrifugation. Supernatants were analyzed by LC-MS/MS and compound concentrations were determined by interpolated from a standard curve prepared in plasma.

Another series deals with T2, human TGR5 (Homo sapiens, UniProt Q8TDU6).
T2 construct: expressed in transfected cells
T2 sequence (Q8TDU6 1-330): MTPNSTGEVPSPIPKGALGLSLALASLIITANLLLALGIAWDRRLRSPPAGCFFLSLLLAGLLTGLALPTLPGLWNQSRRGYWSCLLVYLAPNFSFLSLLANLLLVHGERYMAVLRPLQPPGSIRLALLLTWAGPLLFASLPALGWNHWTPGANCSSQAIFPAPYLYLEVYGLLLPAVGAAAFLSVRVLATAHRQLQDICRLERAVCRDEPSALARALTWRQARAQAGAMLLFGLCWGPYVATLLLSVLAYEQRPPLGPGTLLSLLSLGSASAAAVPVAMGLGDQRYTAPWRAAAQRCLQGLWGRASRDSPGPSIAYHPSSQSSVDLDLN
Description: Cell-based TGR5 assay, HEK293 cells stably expressing human TGR5, cAMP by HTRF. The following applies: 0.05 nM to 10 μM. The method in brief: (§2)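 cAMP HTRF read-out, converted to concentration via standard curve, after a 30 min, 37 °C compound exposure in HBSS with 10 mM HEPES pH 7.4 and 0.5 mM IBMX, compounds serially diluted 3-fold from 10 mM DMSO stock then 100-fold. Cells: stable human TGR5 HEK293, or NCI-H716 expressing TGR5 endogenously.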
A general note: In TR-FRET formats the signal depends on donor and acceptor labels being close together.

Series [2] is described as follows: Compound concentration in gall bladder, LC-MS/MS, 8 h post dose. The class given is in vivo. The following applies: 30 mg/kg; for Number of Mice with Gallbladder Concentration < LLOQ: mice below LLOQ / mice in group; for concentration at 8 h: male, C57BL/6, mouse, with contents, mice, gallbladder homogenate, read-out: Mean Example Gallbladder Concentration. The method, then: as §1
Compound concentrations in the gall bladder were determined as follows: each mouse was heavily anesthetized with isoflurane, the peritoneal cavity was opened and the gallbladder, with its entire contents, was carefully excised. After harvest, gall bladders were homogenized in 100 μL water using a micro-homogenizer. Samples of homogenate were diluted 1:5 in water and precipitated with three volumes of neat acetonitrile. After centrifugation, supernatants were analyzed by LC-MS/MS. The level of test compound present in gall bladder samples was interpolated from a standard curve for each individual compound prepared in a matrix of gallbladder homogenate from vehicle treated animals.

The target in series [3] is T3, endogenously expressed TGR5 in NCI H716 (Homo sapiens, UniProt Q8TDU6).
T3 construct: human caecum carcinoma cell line NCI-H716 which endogenously expresses human TGR5; endogenous in cells; host or cells: NCI-H716
T3 sequence (Q8TDU6 1-330): T2 sequence (Q8TDU6 1-330)
Description: Cell-based TGR5 assay, NCI-H716 cells endogenously expressing human TGR5, cAMP by HTRF. The settings on record: 30 min at 37 C, 22 nM to 50 μM, read-out: pEC50 endogenously expressed TGR5 in NCI H716 (converted). The method in brief: as §2

The mark [4] stands for this setting: HEK293 cells stably expressing human TGR5, 30 min at 37 C, read-out: pEC50 Human TGR5 (converted).

For `O=C(O)CNC(=O)CNC(=O)CNC(=O)CCCCc1cc(Cl)c(CN2CSC[C@H]2C(=O)N2CCN(C3CC3)c3ccccc32)cc1Cl` [Example 228], the EC50 at human IBAT is above 25100 nM. In series [1], the “Number of Mice with Plasma Concentration < LLOQ” value is recorded as 8/8 and the concentration at 8 h was below 0.5 ng/mL. At human TGR5 (pEC50 Human TGR5, HEK293 cells stably expressing human TGR5, 30 min at 37 C), this compound had an EC50 below 100 nM. In series [2], the “Number of Mice with Gallbladder Concentration < LLOQ” value is 0/8 and the concentration at 8 h turned out to be 600 nM.
Turning to `O=C(c1ncoc1Cc1cc(Cl)ccc1Cl)N1CCN(C2CC2)c2ccccc21` [Example 66, 1-cyclopropyl-4-([5-[(2,5-dichlorophenyl)methyl]-1,3-oxazol-4-yl]carbonyl)-1,2,3,4-tetrahydroquinoxaline], the EC50 was above 25100 nM on human IBAT, 1260 to 50100 nM at human TGR5 (setting [4]) and 1260 to 50100 nM in series [3].
For `CC(C)(OCc1cc(Cl)ccc1Cl)C(=O)N1CCN(C2CC2)c2ccccc21` [Example 1, 1-(4-cyclopropyl-1,2,3,4-tetrahydroquinoxalin-1-yl)-2-[(2,5-dichlorophenyl)methoxy]-2-methylpropan-1-one], the values for the EC50 (at human IBAT; at human TGR5 (setting [4]); in series [3]) were above 25100 nM, 126 to 1000 nM and 126 to 1000 nM, respectively.
With `O=C(C1CCN(Cc2cc(Cl)ccc2Cl)C1)N1CCN(C2CC2)c2ccccc21` (centres unmarked) [Example 57, (4-cyclopropyl-3,4-dihydroquinoxalin-1(2H)-yl)(1-(2,5-dichlorobenzyl)pyrrolidin-3-yl) methanone], the EC50 is above 25100 nM on human IBAT, 1260 to 50100 nM at human TGR5 (setting [4]) and 1260 to 50100 nM in series [3].
As for `CN(Cc1cc(Cl)ccc1Cl)C1(C(=O)N2CCN(C3CC3)c3ccccc32)CC1` [Example 27, (4-cyclopropyl-3,4-dihydroquinoxalin-1(2H)-yl)(1-((2,5-dichlorobenzyl)(methyl)amino)cyclopropyl)methanone], the figures for the EC50 (at human IBAT; on human TGR5 (setting [4]); in series [3]) were above 25100 nM, 126 to 1000 nM and 1260 to 50100 nM, respectively.
In the same order, the values of `COc1cccnc1N(C)C(=O)C1(OCc2cc(Cl)ccc2Cl)CC1` [Example 37, 1-(2,5-dichlorobenzyloxy)-N-(3-methoxypyridin-2-yl)-N-methylcyclopropanecarboxamide] are above 25100 nM, 126 to 1000 nM and 1260 to 50100 nM.
On to `COc1ccccc1N(C)C(=O)C1(OCc2cc(Cl)ccc2Cl)CC1` [Example 36, 1-(2,5-dichlorobenzyloxy)-N-(2-methoxyphenyl)-N-methylcyclopropanecarboxamide], for which the EC50 was above 25100 nM at human IBAT, below 100 nM on human TGR5 (setting [4]) and 126 to 1000 nM in series [3].
On to `CN(C[C@H](O)[C@@H](O)[C@H](O)[C@H](O)CO)C(=O)CCCCc1cc(Cl)c(CN2CSC[C@H]2C(=O)N2CCN(C3CC3)c3ccccc32)cc1Cl` [Example 238], for which the EC50 on human IBAT is above 25100 nM. In series [1], the “Number of Mice with Plasma Concentration < LLOQ” value is reported as 3/8 and the concentration at 8 h came out at 1.2 ng/mL. Further, in series [2], the “Number of Mice with Gallbladder Concentration < LLOQ” value is recorded as 0/8 and the concentration at 8 h was determined as 4400 nM.
Turning to `CN(C(=O)C1(OCc2cc(Cl)ccc2Cl)CC1)c1ccccc1OCC1CC1` [Example 40, N-(2-(cyclopropylmethoxy)phenyl)-1-(2,5-dichlorobenzyloxy)-N-methylcyclopropanecarboxamide], the EC50 at human IBAT was above 25100 nM; on human TGR5 (setting [4]), below 100 nM; in series [3], 126 to 1000 nM.
For `O=C(c1cccc(=O)n1Cc1cc(Cl)ccc1Cl)N1CCN(C2CC2)c2ccccc21` [Example 64, 6-[(4-cyclopropyl-1,2,3,4-tetrahydroquinoxalin-1-yl)carbonyl]-1-[(2,5-dichlorophenyl)methyl]-1,2-dihydropyridin-2-one] the same measures were above 25100 nM, 1260 to 50100 nM and 1260 to 50100 nM.
For `CC(C)(COc1cc(Cl)ccc1Cl)C(=O)N1CCN(C2CC2)c2ccccc21` [Example 31, 1-(4-cyclopropyl-1,2,3,4-tetrahydroquinoxalin-1-yl)-3-(2,5-dichlorophenoxy)-2,2-dimethylpropan-1-one] the same measures were above 25100 nM, below 100 nM and 126 to 1000 nM.
With `Cn1c(C(=O)NC[C@H](O)[C@@H](O)[C@H](O)[C@H](O)CO)cnc1SCc1cc(Cl)c(CN2CSC[C@H]2C(=O)N2CCN(C3CC3)c3ccccc32)cc1Cl` [Example 175, 2-((2,5-dichloro-4-(((R)-4-(4-cyclopropyl-1,2,3,4-tetrahydroquinoxaline-1-carbonyl)thiazolidin-3-yl)methyl)benzyl)thio)-1-methyl-N-((2S,3R,4R,5R)-2,3,4,5,6-pentahydroxyhexyl)-1H-imidazole-5-carboxamide], at human IBAT, the EC50 was above 25100 nM. Besides, the “Number of Mice with Plasma Concentration < LLOQ” value in series [1] was 7/8. Moreover, the “Number of Mice with Gallbladder Concentration < LLOQ” value in series [2] is given as 0/8.
On to `CC1(C)C[C@@H](C(=O)N2CCN(C3CC3)c3ccccc32)N(Cc2cc(Cl)ccc2Cl)C1` [Example 19, (S)-(4-cyclopropyl-3,4-dihydroquinoxaline-1 (2H)-yl)(1-(2,5-dichlorobenzyl)-4,4-dimethylpyrrolidin-2-yl)methanone], for which the values for the EC50 (at human IBAT; at human TGR5 (setting [4]); in series [3]) were above 25100 nM, 1260 to 50100 nM and 1260 to 50100 nM, respectively.
As for `O=C([C@@H]1CCC(=O)N1Cc1cc(Cl)ccc1Cl)N1CCN(C2CC2)c2ccccc21` [Example 25, (S)-5-(4-cyclopropyl-1,2,3,4-tetrahydroquinoxaline-1-carbonyl)-1-(2,5-dichlorobenzyl)pyrrolidin-2-one], the EC50 was above 25100 nM on human IBAT, 1260 to 50100 nM on human TGR5 (setting [4]) and 1260 to 50100 nM in series [3].
For `O=C(COc1cc(Cl)ccc1Cl)N1CCN(C2CC2)c2ccccc21` [Example 4, 1-(4-cyclopropyl-3,4-dihydroquinoxalin-1(2H)-yl)-2-(2,5-dichlorophenoxy)ethanone], the EC50 at human IBAT is above 25100 nM; on human TGR5 (setting [4]), 1260 to 50100 nM; in series [3], above 50100 nM.
For `O=C([C@@H]1CCCCN1Cc1cc(Cl)ccc1Cl)N1CCCc2ccccc21` [Example 11, (S)-(1-(2,5-dichlorobenzyl)piperidin-2-yl)(3,4-dihydroquinolin-1(2H)-yl)methanone] the same measures were above 25100 nM, 1260 to 50100 nM and 1260 to 50100 nM.
In the same order, the values of `O=C([C@@H]1CCCN1S(=O)(=O)c1cc(Cl)ccc1Cl)N1CCN(C2CC2)c2ccccc21` [Example 18] are above 25100 nM, 1260 to 50100 nM and 1260 to 50100 nM.
For `O=C(c1cccc(OCc2cc(Cl)ccc2Cl)n1)N1CCN(C2CC2)c2ccccc21` [Example 63, 1-cyclopropyl-4-([6-[(2,5-dichlorophenyl)methoxy]pyridin-2-yl]carbonyl)-1,2,3,4-tetrahydroquinoxaline] the same measures were above 25100 nM, 1260 to 50100 nM and 1260 to 50100 nM.
In the case of `O=C(c1cccn1Cc1cc(Cl)ccc1Cl)N1CCN(C2CC2)c2ccccc21` [Example 61, (4-cyclopropyl-3,4-dihydroquinoxalin-1(2H)-yl)(1-(2,5-dichlorobenzyl)-1H-pyrrol-2-yl)methanone], the EC50 on human IBAT is above 25100 nM; on human TGR5 (setting [4]) it was 126 to 1000 nM; in series [3], 126 to 1000 nM.
